Test results from PMC7617456, “Cryptosporidium lysyl-tRNA synthetase inhibitors define the interplay between solubility and permeability required to achieve efficacy” (Science translational medicine, 2024).
“Also recorded” adds a separate entry of the source.

What was measured:
[1] = Plasma protein binding, bovine; format: in vitro ADME; conditions: calf plasma, PPB assay, read-out: fraction unbound (fu)
[2] = Plasma protein binding, dog; format: in vitro ADME; conditions: read-out: PPB (d) (converted)
[3] = biological target: CYP450 3A4 (Homo sapiens, UniProt P08684); assay: CYP450 inhibition 3A4; format: in vitro ADME
Method: (§1) CYP450 inhibition (Dundee)
(§2) As previously described.(31)
(§3) DDD489 and DDD508 were evaluated for their ability to induce reverse mutations both in the presence and absence of S9 mix at the histidine locus in the genome of four strains of Salmonella typhimurium (TA98, TA100, TA1535, and TA97a) and at the tryptophan locus in the genome of Escherichia coli WP2 uvrA in a mini-Ames study conducted at WuXi App Tec […]
(§4) hERG inhibition (WuXi App Tec)
(§5) DDD489 and DDD508 were evaluated for their effects on cloned hERG potassium channels stably expressed in Chinese Hamster Ovary (CHO) cells using manual patch-clamp technique in a hERG inhibition assay conducted at WuXi App Tec (Suzhou).
(§6) Mitochondrial toxicity (Cyprotex)
(§7) DDD489 and DDD508 were evaluated for their effects on mitochondrial function in a functional mitochondrial toxicity assay using Seahorse XFe96 flux analyser conducted at […]
(§8) 44 screen safety panel (Eurofins)
(§9) DDD489 was evaluated for off-target effects in a SafetyScreen44 panel at Eurofins Cerep.
(§10) All regulated procedures, at the University of Dundee, on living animals were carried out under the authority of a project license issued by the Home Office under the Animals (Scientific Procedures) Act 1986, as amended in 2012 (and in compliance with EU Directive EU/2010/63). […]

[4] = biological target: T1, hERG potassium channels (Homo sapiens, UniProt Q12809); assay: hERG inhibition, manual patch-clamp; format: cell-based; conditions: CHO cells
T1 construct: host or cells: Chinese Hamster Ovary (CHO) cells
Method: as §4
DDD489 and DDD508 were evaluated for their effects on cloned hERG potassium channels stably expressed in Chinese Hamster Ovary (CHO) cells using manual patch-clamp technique in a hERG inhibition assay conducted at WuXi App Tec (Suzhou). […]

[5] = Rat pharmacokinetics; format: in vivo; conditions: for half-life / Vd / AUC / Cmax / Tmax / bioavailability: male, Hans Wistar, whole blood; for half-life / Vd: 3 mg/kg, rat, IV; for half-life: read-out: T½ (converted); for Vd: read-out: Vdss; for bioavailability: read-out: F (oral bioavailability); for CLB: rat IV, clearance in blood
Method: Rat pharmacokinetics (Dundee)
As for mice except using male Hans Wistar rats (IV dose volume 1 mL/kg; PO dose volume: […]
Pharmacokinetic parameters were
derived from the blood concentration-time curve using WinNonLin Professional Software v
6.3 (Pharsight Corporation). […]

[6] = tested on: P-gp (MDR1); assay: in vitro; conditions: dog, MDCK-MDR1
[7] = tested on: KRS-A309L; assay: Transgenic C. parvum NanoLuciferase drug sensitivity assay, KRS-A309L; format: cell-based; conditions: Cryptosporidium parvum, HCT-8, 48 h, read-out: EC50, KRS-A309L
[8] = NOD SCID Gamma mice at MED 30 mg/kg, first and last days of treatment
From the text: Figure S6. Blood concentration time profiles for late lead compounds in infected mice.
Mean free blood concentration time profiles following oral administration of late lead compounds to NOD SCID Gamma (A a n d B ) and IFN-Gamma KO (C and D) mice twice daily for 7 days as described in Fig. 1C and Fig. 4A) respectively. Data are mean ± SD (3 mice per group). Blood samples were collected on the first day (squares) and last day (circles) of compound dosing (Day 7 and 13 PI for NOD SCID Gamma, Day 6 and 13 for IFN-Gamma KO). Total drug concentrations were corrected for fraction unbound (fu) in PPB assay […]
mg/kg) was administered to NOD SCID Gamma mice. (B) DDD508 (10 mg/kg) was administered to NOD SCID Gamma mice. Blood concentrations were scaled to 30 mg/kg for comparison, assuming dose linearity. (C) DDD489 (50 mg/kg) was administered to IFN-Gamma KO mice. (D) DDD508 (50 mg/kg) was administered to IFN-Gamma KO mice.
(1 picture or pasted object on this page, not shown here)

[9] = Liver microsomal intrinsic clearance, mouse; format: in vitro ADME; conditions: mouse liver microsomes
[10] = Liver microsomal intrinsic clearance, bovine; format: in vitro ADME; conditions: bovine liver microsomes
[11] = biological target: CYP450 2C19 (Homo sapiens, UniProt P33261); assay: CYP450 inhibition 2C19; format: in vitro ADME
Method: as §1, §2, §3, §4, §5, §6, §7, §8, §9, §10

[12] = tested on: wild type C. parvum; assay: NOD SCID Gamma mouse efficacy model; format: in vivo; conditions: for parasite shedding once treatment finished (day 14 PI) / recrudescence (day 21 PI): 10 mg/kg BID oral 7 days; for log reduction in parasite shedding / parasite reduction: 10 mg/kg twice a day oral 7 days; for minimum efficacious dose (MED): BID oral 7 days, reduces parasite burden and prevents recrudescence
Method: An immunocompromised mouse model of cryptosporidiosis (Fig. 1C) was selected to examine the effect of each of the fourteen tool compounds on parasite reduction in vivo. […] Treatment started on day 7 post infection (PI) and concluded on day 13 PI. Infection was determined by measuring the number of parasites shed in the fecal material by quantitative PCR (oocysts/g). Efficacy was determined by calculating the log reduction in the number of oocysts shed by treated animals after completion of compound dosing (day 14) relative to the initial parasite burden in the same group of animals before treatment began (day 7 PI). Hypothesized compound absorption by BCS class is illustrated in Fig. S3. […] No Class I or Class IV compound achieved a log reduction above 2.0 (99% parasite reduction).
Efficacy of tool compounds in the NOD SCID Gamma mouse model was assessed as previously described.([14]) Male mice aged 3-5 weeks old were used, 4 mice per group (NOD.Cg-Prkdc^scid Il2rgtm1Wjl/SzJ; purchased from Jackson Labs). Mice were infected via gavage (100,000 wild type Iowa strain C. parvum oocysts from Bunchgrass Farms). Compounds were prepared fresh daily in HPMC with DMSO (0.5% hydroxypropylmethylcellulose, 0.4% Tween 80 and 0.5% Benzyl alcohol (v/v) plus 5% DMSO) and were administered by oral gavage at the concentration indicated starting 7 days post infection. Paromomycin served as the positive control (administered at 2000 mg/kg). Fecal samples were collected on days indicated. Oocyst shedding in feces was measured using a previously validated qPCR assay.([28])

[13] = rat IV (DDD489 2.8, DDD508 3.47 mg/kg)

Chain of CYP450 2C19 (P33261 whole entry): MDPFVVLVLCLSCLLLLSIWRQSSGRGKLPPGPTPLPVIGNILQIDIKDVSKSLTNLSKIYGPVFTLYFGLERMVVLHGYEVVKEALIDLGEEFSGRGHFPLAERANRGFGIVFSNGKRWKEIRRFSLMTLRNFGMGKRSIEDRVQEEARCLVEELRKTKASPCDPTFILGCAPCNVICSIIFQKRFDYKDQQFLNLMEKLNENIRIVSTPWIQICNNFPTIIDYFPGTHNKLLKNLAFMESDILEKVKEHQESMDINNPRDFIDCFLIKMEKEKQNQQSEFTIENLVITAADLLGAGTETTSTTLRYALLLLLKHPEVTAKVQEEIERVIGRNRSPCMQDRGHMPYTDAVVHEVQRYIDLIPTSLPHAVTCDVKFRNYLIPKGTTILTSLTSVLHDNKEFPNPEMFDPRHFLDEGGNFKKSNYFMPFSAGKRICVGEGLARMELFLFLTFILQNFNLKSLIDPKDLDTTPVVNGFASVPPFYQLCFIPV
Chain of CYP450 3A4 (P08684 whole entry): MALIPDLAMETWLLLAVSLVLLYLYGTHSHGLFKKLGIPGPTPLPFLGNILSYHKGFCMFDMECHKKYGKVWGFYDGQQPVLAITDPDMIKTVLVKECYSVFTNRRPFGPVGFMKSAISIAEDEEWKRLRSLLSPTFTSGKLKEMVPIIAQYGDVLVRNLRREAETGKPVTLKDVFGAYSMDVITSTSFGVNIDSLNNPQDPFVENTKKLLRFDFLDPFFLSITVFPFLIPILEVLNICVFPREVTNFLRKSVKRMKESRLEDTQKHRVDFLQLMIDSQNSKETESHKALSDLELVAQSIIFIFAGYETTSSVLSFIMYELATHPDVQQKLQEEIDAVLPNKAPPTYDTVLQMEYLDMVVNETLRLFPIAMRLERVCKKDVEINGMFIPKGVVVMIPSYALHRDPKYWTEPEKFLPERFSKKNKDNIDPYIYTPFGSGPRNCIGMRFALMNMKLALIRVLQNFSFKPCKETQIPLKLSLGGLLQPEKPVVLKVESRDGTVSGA
T1 sequence (Q12809 whole entry): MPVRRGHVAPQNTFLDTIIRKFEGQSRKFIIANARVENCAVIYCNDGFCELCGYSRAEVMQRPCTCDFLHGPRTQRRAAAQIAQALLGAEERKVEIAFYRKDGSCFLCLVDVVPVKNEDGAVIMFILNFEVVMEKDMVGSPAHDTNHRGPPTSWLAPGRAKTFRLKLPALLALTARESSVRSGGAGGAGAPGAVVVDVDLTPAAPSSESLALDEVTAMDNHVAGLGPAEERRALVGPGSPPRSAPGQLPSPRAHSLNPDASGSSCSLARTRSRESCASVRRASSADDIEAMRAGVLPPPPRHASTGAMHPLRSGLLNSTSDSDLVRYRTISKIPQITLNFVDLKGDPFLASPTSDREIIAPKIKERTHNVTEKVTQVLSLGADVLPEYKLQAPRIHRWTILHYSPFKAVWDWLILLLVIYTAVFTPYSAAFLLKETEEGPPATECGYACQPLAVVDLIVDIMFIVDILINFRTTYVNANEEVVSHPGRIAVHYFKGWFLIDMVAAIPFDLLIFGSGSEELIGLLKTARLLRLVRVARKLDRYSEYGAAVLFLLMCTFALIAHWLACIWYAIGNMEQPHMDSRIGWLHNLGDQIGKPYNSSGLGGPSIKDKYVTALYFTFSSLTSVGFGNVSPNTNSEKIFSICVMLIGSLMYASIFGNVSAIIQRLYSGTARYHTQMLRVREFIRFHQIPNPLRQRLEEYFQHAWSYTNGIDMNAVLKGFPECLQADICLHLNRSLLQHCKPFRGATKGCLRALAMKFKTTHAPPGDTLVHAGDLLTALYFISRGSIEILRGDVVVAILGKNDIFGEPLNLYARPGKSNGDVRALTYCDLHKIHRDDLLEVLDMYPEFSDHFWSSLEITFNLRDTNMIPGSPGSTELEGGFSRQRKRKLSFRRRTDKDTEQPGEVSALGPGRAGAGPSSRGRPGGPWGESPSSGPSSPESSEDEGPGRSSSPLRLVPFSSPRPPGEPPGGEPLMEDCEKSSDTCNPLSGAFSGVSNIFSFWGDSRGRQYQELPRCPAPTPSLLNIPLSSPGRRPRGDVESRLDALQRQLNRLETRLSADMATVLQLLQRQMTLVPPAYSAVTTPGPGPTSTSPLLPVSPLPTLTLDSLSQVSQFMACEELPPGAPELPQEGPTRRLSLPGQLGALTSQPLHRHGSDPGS

Row | Compound | fraction unbound [1] | fraction unbound [2] | IC50 [3] [µM] | IC50 [4] [µM] | half-life [5] [h] | Vd [5] [L/kg] | AUC [5, 13] [ng·h/mL] | AUC ([5]; rat PO 10 mg/kg) [ng·h/mL] | Cmax ([5]; rat PO 10 mg/kg) [ng/mL] | Tmax ([5]; rat PO 10 mg/kg) [h] | bioavailability ([5]; rat PO 10 mg/kg) [%] | CLB [5] [mL/min/kg] | efflux ratio [6] | EC50 [7] [µM] | free blood concentration relative to EC90 [8] | Mics CLi (m) [9] [mL/min/g] | Mics CLi (b) [10] [mL/min/g] | IC50 [11] [µM] | parasite shedding once treatment finished (day 14 PI) [12] | recrudescence (day 21 PI) [12] | further results
1 | O=C(NCC1(O)CCCCC1)c1cc(=O)c2cc(O)ccc2o1 [DDD508] | 0.53 | 0.52 | > 100 | > 30 | 0.6 | 2.1 | 900 | 367 | 100 | 1 | 14 | 64 | 9.5 | 9.93 | only above the EC90 for around two hours | 1.4 | < 0.5 | > 100 | parasite shedding to the level of detection | unable to prevent recrudescence | log reduction in parasite shedding [12]: > 2.8 log; parasite reduction [12]: > 99.8%; minimum efficacious dose (MED) [12]: 30 mg/kg
2 | Nc1nc2c(c(C(F)(F)F)n1)C(=O)N(CC1CCCC(C(F)(F)F)C1)C2 (centres unmarked) [DDD489] | 0.26 | 0.3 | > 100 | > 30 | 1.2 | 3.2 | 1200 | 137 | 30 | 2 | 3.2 | 39 | 1.3 | 8.63 | only above the EC90 for around two hours | 12 | 25 | > 100 | reduces parasite shedding to the level of detection | unable to prevent recrudescence; also recorded: does not prevent recrudescence | log reduction in parasite shedding [12]: > 2.8 log; parasite reduction [12]: > 99.8%; recrudescence at day 21 PI ([12]; 50 mg/kg BID oral 7 days): prevents; minimum efficacious dose (MED) [12]: 30 mg/kg
